# System: secretion levels of IL-6 in PBMC cells
# Assay: Inhibition of R848-induced IL-6 secretion in PBMC (IL-6 ELISA)
# Assay type: cell-based
# Details: human PBMC, 20 h compound pre-incubation, 24 h stimulation
# Summary of the method: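 PBMC pre-treated with compounds (top 1 μM, 4-fold dilutions) in RPMI 1640/10% FBS for 20 h at 37 °C, then stimulated with R848 ([…] final) for another 24 h. Supernatant IL-6 by ELISA (OD450, standard curve); IC50 from dose-effect curve fit.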
smiles,measurement,value
Cc1nn(C2CCC(=O)NC2=O)c2cccc(N3CC4CN(C[C@H]5CC[C@H](n6cc7cc(NC(=O)c8cnn9cccnc89)c(N8CCOCC8)cc7n6)CC5)CC4C3)c12 (stereo partly shown) [TM-57],IC50,3.43 nM

# From US20260146044A1, “AROMATIC COMPOUND, PHARMACEUTICAL COMPOSITION CONTAINING SAME, AND USE THEREOF” (Increland, priority 2023, published 2026)
